This is an account of results in article PMC6021035, “Insights into biological activity of ureidoamides with primaquine and amino acid moieties” (Journal of Enzyme Inhibition and Medicinal Chemistry, 2018).

Where two headings read alike, the source gives them in different places. Some results are limits rather than exact numbers.

Series [1] has as its system Candida parapsylosis ATCC 22019. Nature of the series: Minimum biofilm eradication assay. The class given is cell-based. How it is done:
(§1) We tested the susceptibility of different bacterial and yeast strains to compounds 5a–f by determining the minimum biofilm eradication concentration (MBEC). The test was performed in a sterile 96-well flat-bottom plastic tissue culture plate (TPP, Switzerland). Each well was filled with 100 µl of bacterial (10^7 CFUs/ml) or yeast (5 × 10^6 CFUs/ml) suspension. When the possibility of inhibition of yeast biofilm formation was tested, the wells were pre-treated with FBS (250 µl per well). Negative controls contained broth only. Positive controls were performed using standard antibacterial and antifungal drugs gentamycin and amphotericin B, respectively. The plates were covered and incubated aerobically for 24 h (bacteria) or 48 h (yeast) at 37 °C. Following the incubation period, each well was aspirated and washed three times with 250 µl of PBS and vigorously shaken in order to remove all non-adherent bacteria/yeast. The remaining attached cells were fixed with methanol (15 min) and the plates were left to dry overnight. The formed biofilm was stained with crystal violet (1%, 5 min). Excess stain was rinsed by placing the plate under running tap water and the plates were left to dry for 24 h. Adherent cells were resolubilized with acetic acid (33%, v/v). The optical density of each well was measured at 570 nm using a Multiscan plate reader. The MBEC value represents the lowest compound dilution at which microorganisms fail to grow.

In series [2] the test system is Candida tropicalis ATCC 750. Nature of the series: Minimum biofilm eradication assay. In kind it is cell-based. As to conditions: ATCC750, 48 h, read-out: MBEC. Here is the method: as §1
The subject of series [3] is Candida albicans ATCC 90028. Nature of the series: Minimum biofilm eradication assay. The class given is cell-based. As to conditions: ATCC90028, 48 h, read-out: MBEC. Here is the method: as §1
Series [4] relates to Enterococcus faecalis ATCC 29212. The series can be described thus: Minimum biofilm eradication assay. The class given is cell-based. How it is done: as §1
Series [5] has as its system Candida krusei ATCC 14243. The series can be described thus: Minimum biofilm eradication assay. The class given is cell-based. As to conditions: Pichia kudriavzevii, ATCC14243, 48 h, read-out: MBEC. Here is the method: as §1
For series [6], the system named is Pseudomonas aeruginosa ATCC 9027. Nature of the series: Minimum biofilm eradication assay. In kind it is cell-based. Here is the method:
as §1

Series [7] concerns Pseudomonas aeruginosa ATCC 27853. The series can be described thus: Minimum biofilm eradication assay. In kind it is cell-based. Here is the method:
as §1

Series [8] concerns Staphylococcus aureus ATCC 6538. Nature of the series: Minimum biofilm eradication assay. The class given is cell-based. How it is done: as §1
The subject of series [9] is Escherichia coli ATCC 8739. The series can be described thus: Minimum biofilm eradication assay. In kind it is cell-based. Here is the method: as §1
Series [10] relates to Staphylococcus aureus ATCC 25213. The series can be described thus: Minimum biofilm eradication assay. In kind it is cell-based. Here is the method: as §1
Series [11] has as its system Candida albicans ATCC 10231. Nature of the series: Minimum biofilm eradication assay. As to conditions: ATCC10231, 48 h, read-out: MBEC. The class given is cell-based. Here is the method:
as §1

Series [12] concerns Escherichia coli ATCC 10536. Nature of the series: Minimum biofilm eradication assay. The class given is cell-based. How it is done: as §1
Series [13] has as its system Candida kefyr ATCC 2512. Nature of the series: Minimum biofilm eradication assay. The class given is cell-based. As to conditions: Kluyveromyces marxianus, ATCC2512, 48 h, read-out: MBEC. How it is done: as §1
For series [14], the target named is T1, soybean lipoxygenase (LOX) (Glycine max, UniProt P08170).
T1 construct: purchased Sigma-Aldrich
T1 sequence (P08170 1-839): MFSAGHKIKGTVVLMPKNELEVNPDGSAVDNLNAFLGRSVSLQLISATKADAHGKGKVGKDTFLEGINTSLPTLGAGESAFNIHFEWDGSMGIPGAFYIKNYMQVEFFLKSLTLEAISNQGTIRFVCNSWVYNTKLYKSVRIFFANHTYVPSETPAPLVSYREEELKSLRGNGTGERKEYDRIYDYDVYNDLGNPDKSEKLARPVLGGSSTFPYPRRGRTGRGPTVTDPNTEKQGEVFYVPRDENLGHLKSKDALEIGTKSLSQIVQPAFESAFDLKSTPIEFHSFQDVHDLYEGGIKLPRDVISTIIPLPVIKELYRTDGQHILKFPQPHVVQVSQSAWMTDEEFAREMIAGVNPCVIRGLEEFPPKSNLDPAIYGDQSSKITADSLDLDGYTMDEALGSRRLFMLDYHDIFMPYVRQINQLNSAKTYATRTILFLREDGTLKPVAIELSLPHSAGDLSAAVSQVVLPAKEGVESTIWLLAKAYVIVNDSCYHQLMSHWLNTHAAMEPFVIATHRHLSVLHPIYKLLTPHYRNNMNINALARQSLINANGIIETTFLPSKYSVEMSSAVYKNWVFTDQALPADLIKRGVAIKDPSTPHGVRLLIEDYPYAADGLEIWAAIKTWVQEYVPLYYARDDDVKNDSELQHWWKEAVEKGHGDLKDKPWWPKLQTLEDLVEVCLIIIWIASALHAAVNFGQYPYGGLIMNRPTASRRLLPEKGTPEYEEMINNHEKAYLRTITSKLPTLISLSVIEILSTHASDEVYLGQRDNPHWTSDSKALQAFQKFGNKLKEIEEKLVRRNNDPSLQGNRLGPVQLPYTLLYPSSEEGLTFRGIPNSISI
Nature of the series: In vitro soybean lipoxygenase (LOX) inhibition. In kind it is biochemical. As to conditions: for IC50: sodium linoleate 0.1 mM, read-out: LOX inhibition (IC50 μM) ± SD. Here is the method:
In vitro LOX inhibition assay was accomplished as described previously. Test compounds (stock solutions 10 mM in DMSO) were incubated at room temperature with sodium linoleate (0.1 mM) and 0.2 ml of LOX solution (0.1 mg in 10 ml saline). Conversion of sodium linoleate to 13-hydroperoxylinoleic acid was measured at 234 nm and compared to the reference inhibitor. Several concentrations were used for IC50 determination.

Series [15] is described as follows: In vitro haemolytic activity. The class given is cell-based. As to conditions: male, 4% human erythrocytes, read-out: Haemolysis (%); for hemolysis at 1 h, 50 µg/ml: pH 7, 50 μg/ml; for hemolysis at 1 h, 100 µg/ml: pH 7, 100 μg/ml; for hemolysis at 1 h, 200 µg/ml: pH 7, 200 μg/ml. How it is done:
Then, 4% (v/v) of fresh human erythrocyte solution (hErc) was prepared using a PBS pH 7.0 solution. A series of diluted compounds from 200 to 50 µg/ml were prepared in a total volume of 1 ml with hErc solution. […] Absorbance of the supernatant (200 µl) was recorded at 540 nm using an iEMS microplate reader. The 0.1% (v/v) solution of Triton X100 served as a positive control (as total lysis of hErc), and intact hErc served as a negative control. […] All tests were performed in triplicate and the results were expressed as haemolysis percentage (mean ± SD). Percentage of haemolysis was calculated using the following equation: haemolysis %=Asample-Anc/Apc-Anc×100 where Asample was absorbance of the tested compound, Anc was absorbance of the negative control (intact hErc) and Apc was absorbance of the positive control treated with 0.1% TritonX100. In statistical calculations, p values below 0.05 were considered significant throughout the test. For comparison of mean values, one-way ANOVA with Dunnet’s post-test was used.

Setting [16] is: 4% (v/v) fresh human erythrocyte suspension.

Regarding `COc1cc(NC(C)CCCNC(=O)NC(CC(C)C)C(=O)NC(c2ccccc2)c2ccccc2)c2ncccc2c1` (stereo not drawn) [Compound 5a, N-(diphenylmethyl)-2-[({4-[(6-methoxyquinolin-8-yl)amino]pentyl}carbamoyl)amino]-4-methylpentanamide], the MBEC is above 100 µg/mL in series [1]; above 100 µg/mL in series [4]; 60 µg/mL in series [6]; 25 µg/mL in series [7]; 12.5 µg/mL in series [8]; 6.25 µg/mL in series [9]. Besides, the MBEC in [10] came out at 25 µg/mL; in [12], 6.25 µg/mL. Also, the minimal effective concentration was above 100 µg/mL in [2]; 25 µg/mL in series [3]; above 100 µg/mL in series [5]; above 100 µg/mL in series [11]; above 100 µg/mL in series [13]. Besides, the “LOX inhibition, per cent” value in [14] (100 μΜ (footnotes a, c)) is 40.0 ± 1.0^a^,^c per cent. The hemolysis at 1 h, 50 µg/ml in series [15] (setting [16]) is 3.14 ± 0.04%. Also, the hemolysis at 1 h, 100 µg/ml in [15] (setting [16]) worked out at 4.03 ± 0.03%. Besides, in series [15] (setting [16]), the hemolysis at 1 h, 200 µg/ml is 4.24 ± 0.07%.

`COc1cc(NC(C)CCCNC(=O)NC(C(=O)N(C)C(c2ccccc2)c2ccccc2)c2ccccc2)c2ncccc2c1` (stereo not drawn) [Compound 5b, N-(diphenylmethyl)-2-[({4-[(6-methoxyquinolin-8-yl)amino]pentyl}carbamoyl)amino]-N-methyl-2-phenylacetamide]: the MBEC in series [1] was above 100 µg/mL; in [4] it was above 100 µg/mL; in [6] it was above 100 µg/mL; in [7] it was above 100 µg/mL; in series [8] it was above 100 µg/mL; in series [9], 12.5 µg/mL. Besides, the MBEC in series [10] is above 100 µg/mL; in series [12], 12.5 µg/mL. The minimal effective concentration was above 100 µg/mL in [2]; 50 µg/mL in series [3]; above 100 µg/mL in series [5]; 50 µg/mL in series [11]; above 100 µg/mL in [13]. In series [14], the IC50 came to 69 ± 2 µM. Further, in [15] (setting [16]), the hemolysis at 1 h, 50 µg/ml was found to be 3.13 ± 0.05%. The hemolysis at 1 h, 100 µg/ml in series [15] (setting [16]) turned out to be 3.94 ± 0.05%. Moreover, the hemolysis at 1 h, 200 µg/ml in series [15] (setting [16]) worked out at 4.04 ± 0.08%.

Consider `COc1cc(NC(C)CCCNC(=O)NC(C(=O)NC(c2ccccc2)c2ccc(Cl)cc2)c2ccccc2)c2ncccc2c1` (stereo not drawn) [Compound 5c, N-[(4-chlorophenyl)(phenyl)methyl]-2-[({4-[(6-methoxyquinolin-8-yl)amino]pentyl}carbamoyl)amino]-2-phenylacetamide], for which the MBEC in series [1] is above 100 µg/mL; in series [4], above 100 µg/mL; in series [6], 50 µg/mL; in series [7], 25 µg/mL; in [8], above 100 µg/mL; in series [9], 6.25 µg/mL. Besides, the MBEC in [10] was above 100 µg/mL; in [12], 6.25 µg/mL. In addition, the minimal effective concentration in series [2] is above 100 µg/mL; in series [3] it was 25 µg/mL; in series [5], above 100 µg/mL; in [11], 50 µg/mL; in series [13], above 100 µg/mL. In addition, the 50% inhibitory concentration (IC50) in series [14] is 40 ± 1.5 µM. For the same molecule, the hemolysis at 1 h, 50 µg/ml in series [15] (setting [16]) worked out at 3.06 ± 0.05%. Further, the hemolysis at 1 h, 100 µg/ml in series [15] (setting [16]) came out at 4.26 ± 0.07%. The hemolysis at 1 h, 200 µg/ml in [15] (setting [16]) is 4.89 ± 0.13%.

Turning to `COc1cc(NC(C)CCCNC(=O)NC(C(=O)NC(c2ccccc2)c2ccccc2)c2ccc(Cl)cc2)c2ncccc2c1` (stereo not drawn) [Compound 5d, 2–(4-chlorophenyl)-N-(diphenylmethyl)-2-[({4-[(6-methoxyquinolin-8-yl)amino]pentyl}carbamoyl)amino]acetamide], the MBEC in series [1] was above 100 µg/mL; in series [4], above 100 µg/mL; in series [6], 50 µg/mL; in [7], 50 µg/mL; in series [8], 25 µg/mL; in series [9], 25 µg/mL. For the same molecule, the MBEC in [10] and in series [12] was 25 µg/mL each time. Moreover, the minimal effective concentration in series [2] is above 100 µg/mL; in series [3] it was 25 µg/mL; in series [5], above 100 µg/mL; in series [11], 50 µg/mL; in series [13], 25 µg/mL. For the same molecule, the IC50 in series [14] was 41.5 ± 3.1 µM. Besides, the hemolysis at 1 h, 50 µg/ml in [15] (setting [16]) turned out to be 2.56 ± 0.05%. Further, the hemolysis at 1 h, 100 µg/ml in [15] (setting [16]) was 2.94 ± 0.04%. In addition, the hemolysis at 1 h, 200 µg/ml in [15] (setting [16]) is 3.07 ± 0.05%.

Consider `COc1cc(NC(C)CCCN)c2ncccc2c1` (stereo not drawn) [PQ, 8-[(4-amino-1-methylbutyl)amino]-6-methoxyquinoline, reference compound], for which the MBEC in series [1] was 50 µg/mL; in series [4], above 100 µg/mL; in [6] it was 70 µg/mL; in series [7], 50 µg/mL; in series [8], 50 µg/mL; in series [9], 25 µg/mL. In addition, the MBEC is above 100 µg/mL in series [10] and 25 µg/mL in series [12]. Further, the minimal effective concentration in series [2] is above 100 µg/mL; in series [3], above 100 µg/mL; in [5], above 100 µg/mL; in series [11] it was above 100 µg/mL; in series [13], 50 µg/mL. In addition, the hemolysis at 1 h, 50 µg/ml in [15] came out at 2.08 ± 0.05%. Moreover, the hemolysis at 1 h, 100 µg/ml in [15] is 2.53 ± 0.04%. Besides, the hemolysis at 1 h, 200 µg/ml in series [15] came to 3.12 ± 0.07%.
